According to patent US20240116985A1, “STAPLED PEPTIDES AND METHODS THEREOF” (priority 2020, published 2024):
In brackets after ≈: the same amount, converted by molar mass. Read-outs that look alike come from different tables or passages of the source.

Columns and labels:
[1] = target: T1, full-length beta-Catenin (Uniprot ID P35222) (Homo sapiens, UniProt P35222); test: Fluorescence polarization IC50 (beta-catenin / 5FAM-TCF4 10-53 competition); assay type: binding
T1 construct: 10 nM full-length beta-Catenin (Uniprot ID P35222)
T1 sequence (P35222 1-781): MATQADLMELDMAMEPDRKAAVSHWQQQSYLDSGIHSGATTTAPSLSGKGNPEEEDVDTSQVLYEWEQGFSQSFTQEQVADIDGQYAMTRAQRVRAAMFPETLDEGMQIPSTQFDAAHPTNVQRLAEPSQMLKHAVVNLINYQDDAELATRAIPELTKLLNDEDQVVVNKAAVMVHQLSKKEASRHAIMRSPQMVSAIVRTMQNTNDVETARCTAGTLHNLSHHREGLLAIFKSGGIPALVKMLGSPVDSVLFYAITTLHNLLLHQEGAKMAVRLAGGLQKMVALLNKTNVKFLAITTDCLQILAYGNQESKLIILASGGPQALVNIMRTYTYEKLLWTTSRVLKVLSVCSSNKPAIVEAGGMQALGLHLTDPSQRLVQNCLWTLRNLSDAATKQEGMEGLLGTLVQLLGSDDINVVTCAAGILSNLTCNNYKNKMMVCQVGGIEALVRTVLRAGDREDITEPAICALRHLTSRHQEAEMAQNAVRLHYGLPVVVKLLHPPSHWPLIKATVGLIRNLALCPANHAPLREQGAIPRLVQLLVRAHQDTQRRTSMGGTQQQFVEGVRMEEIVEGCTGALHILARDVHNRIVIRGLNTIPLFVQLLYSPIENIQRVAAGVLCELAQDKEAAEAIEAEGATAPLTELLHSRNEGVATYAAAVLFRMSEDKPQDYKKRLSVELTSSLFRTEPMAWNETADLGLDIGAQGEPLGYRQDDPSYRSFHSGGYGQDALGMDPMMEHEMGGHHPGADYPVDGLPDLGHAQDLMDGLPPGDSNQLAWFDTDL

[2] = CHI Log D procedure; assay type: physicochemical; conditions: for CHI Log D: pH 7.4; for chromatographic logD: pH 7.4, CHI Log D
[3] = Solubility in PBS; assay type: physicochemical
Procedure, shortened: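 Steps: ultracentrifuge the peptide PBS solution, inject the supernatant on HPLC, inject a 50 μM peptide DMSO solution as reference, then calculate solubility as area ratio (PBS/DMSO) × 50 uM.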

[4] = fluorescence polarization, read-out: beta-Catenin FP IC50

SMILES	IC50 [1, 4]	IC50 ([1]; read-out: FP EC50)	CHI Log D [2]	Solubility [3]	chromatographic logD [2]	Solubility ([3]; Solubility (uM))
CC(=O)N1CCC[C@]12CC=CCCCC1(CCCC=CCCCCCC[C@@](C)(C(=O)N[C@@H](Cc3ccccc3)C(=O)N[C@@H](Cc3csc4ccccc34)C(=O)N[C@@H](CCC(N)=O)C(N)=O)NC(=O)[C@H](CC(N)=O)NC(=O)[C@H](Cc3ccccc3)NC(=O)[C@H](C)NC(=O)[C@H](C)NC(=O)[C@H](Cc3nn[nH]n3)NC(=O)[C@H](CC(=O)O)NC1=O)NC(=O)[C@H](C)NC(=O)[C@H](CC(=O)O)NC2=O (stereo partly drawn) [I-444, Ac-PL3-Asp-Ala-B5-Asp-Tetz-Ala-Ala-Phe-Asn-S8-Phe-BztA-Gln-NH2]	80 nM	–	–	50 µM (≈ 91.9 µg/mL)	1.99	–
CC(=O)N1CCC[C@]12CC=CCCCC1(CCCC=CCCCCCC[C@@](C)(C(=O)N[C@@H](Cc3ccccc3)C(=O)N[C@@H](Cc3csc4ccccc34)C(=O)N[C@@H](CCC(N)=O)C(N)=O)NC(=O)[C@H](CC(N)=O)NC(=O)[C@H](Cc3ccccc3)NC(=O)[C@H](C)NC(=O)[C@H](C)NC(=O)[C@H](CC(=O)O)NC(=O)[C@H](Cc3nn[nH]n3)NC1=O)NC(=O)[C@H](C)NC(=O)[C@H](CC(=O)O)NC2=O (stereo partly drawn) [I-445, Ac-PL3-Asp-Ala-B5-Tetz-Asp-Ala-Ala-Phe-Asn-S8-Phe-BztA-Gln-NH2]	4960 nM	–	–	–	2.05	43 µM (≈ 79 µg/mL)
CC(=O)N1CCC[C@]12CC=CCCCC1(CCCC=CCCCCCC[C@@](C)(C(=O)N[C@@H](Cc3cccc(F)c3)C(=O)N[C@@H](Cc3c[nH]c4ccccc34)C(=O)N[C@@H](CCC(N)=O)C(N)=O)NC(=O)[C@H](CCC(N)=O)NC(=O)[C@H](Cc3cccs3)NC(=O)[C@H](C)NC(=O)[C@H](C)NC(=O)[C@H](CCC(=O)O)NC(=O)[C@H](CC(=O)O)NC1=O)NC(=O)[C@H](C)NC(=O)[C@H](CC(=O)O)NC2=O (stereo partly drawn) [I-450, Ac-PL3-Asp-Ala-B5-Asp-Glu-Ala-Ala-2Thi-Gln-S8-3FF-Trp-Gln-NH2]	3720 nM	–	–	50 µM (≈ 92.4 µg/mL)	1.88	–
CC(=O)N1CCC[C@]12CC=CCCCC1(CCCC=CCCCCCC[C@@](C)(C(=O)N[C@@H](Cc3cccc(F)c3)C(=O)N[C@@H](Cc3c[nH]c4ccccc34)C(=O)N[C@@H](CCC(N)=O)C(N)=O)NC(=O)[C@H](CCC(N)=O)NC(=O)[C@H](Cc3ccsc3)NC(=O)[C@H](C)NC(=O)[C@H](C)NC(=O)[C@H](CCC(=O)O)NC(=O)[C@H](CC(=O)O)NC1=O)NC(=O)[C@H](C)NC(=O)[C@H](CC(=O)O)NC2=O (stereo partly drawn) [I-452, Ac-PL3-Asp-Ala-B5-Asp-Glu-Ala-Ala-3Thi-Gln-S8-3FF-Trp-Gln-NH2]	1660 nM	1660 nM	1.917	50 µM (≈ 92.4 µg/mL)	–	–
CC(=O)N1CCC[C@]12CC=CCCCC1(CCCC=CCCCCCC[C@@](C)(C(=O)N[C@@H](Cc3ccccc3)C(=O)N[C@@H](Cc3csc4ccccc34)C(=O)N[C@@H](Cc3c[nH]cn3)C(N)=O)NC(=O)[C@H](CC(N)=O)NC(=O)[C@H](Cc3ccccc3)NC(=O)[C@H](C)NC(=O)[C@H](C)NC(=O)[C@H](CC(=O)O)NC(=O)[C@H](CC(=O)O)NC1=O)NC(=O)[C@H](C)NC(=O)[C@H](CC(=O)O)NC2=O (stereo partly drawn) [I-465, Ac-PL3-Asp-Ala-B5-Asp-Asp-Ala-Ala-Phe-Asn-S8-Phe-BztA-His-NH2]	81 nM	81 nM	2.023	40 µM (≈ 72.9 µg/mL)	–	–
CC(=O)N1CCC[C@]12CC=CCCCC1(CCCC=CCCCCCC[C@@](C)(C(=O)N[C@@H](Cc3ccccc3)C(=O)N[C@@H](Cc3csc4ccccc34)C(=O)N[C@@H](Cc3c[nH]cn3)C(N)=O)NC(=O)[C@H](CC(N)=O)NC(=O)[C@H](Cc3ccccc3)NC(=O)[C@H](C)NC(=O)[C@H](C)NC(=O)[C@H](CC(=O)O)NC(=O)[C@H](CC(=O)O)NC1=O)NC(=O)[C@H](C)NC(=O)[C@H](CC(=O)O)NC2=O (stereo partly drawn) [I-466, Ac-PL3-Asp-Ala-B5-Asp-Asp-Ala-Ala-Phe-Asn-S8-Phe-BztA-His-NH2]	19 nM	19 nM	2.069	50 µM (≈ 91.1 µg/mL)	–	–
CC[C@H](C)[C@@H]1NC(=O)[C@H](CC(=O)O)NC(=O)[C@]2(CC=CCCCC3(CCCC=CCCCCCC[C@@](C)(C(=O)N[C@@H](Cc4ccccc4)C(=O)N[C@@H](Cc4csc5ccccc45)C(=O)N[C@@H](CCC(N)=O)C(N)=O)NC(=O)[C@H](CC(N)=O)NC(=O)[C@H](Cc4ccccc4)NC(=O)[C@H](C)NC(=O)[C@H](C)NC(=O)[C@H](CC(=O)O)NC(=O)[C@H](CC(=O)O)NC3=O)NC1=O)CCCN2C(C)=O (stereo partly drawn) [I-467, Ac-PL3-Asp-Ile-B5-Asp-Asp-Ala-Ala-Phe-Asn-S8-Phe-BztA-Gln-NH2]	44 nM	44 nM	2.255	50 µM (≈ 92.8 µg/mL)	–	–

Now from value to compound:

IC50 [1, 4]	IC50 ([1]; read-out: FP EC50)	CHI Log D [2]	Solubility [3]	chromatographic logD [2]	Solubility ([3]; Solubility (uM))	SMILES
2130 nM	2130 nM	2.128	50 µM (≈ 92.1 µg/mL)	–	–	CC(=O)N1CCC[C@]12CC=CCCCC1(CCCC=CCCCCCC[C@@](C)(C(=O)N[C@@H](CCc3ccccc3)C(=O)N[C@@H](Cc3csc4ccccc34)C(=O)N[C@@H](CCC(N)=O)C(N)=O)NC(=O)[C@H](CC(N)=O)NC(=O)[C@H](Cc3ccccc3)NC(=O)[C@H](C)NC(=O)[C@H](C)NC(=O)[C@H](CCC(=O)O)NC(=O)[C@H](CC(=O)O)NC1=O)NC(=O)[C@H](C)NC(=O)[C@H](CC(=O)O)NC2=O (stereo partly drawn) [I-443, Ac-PL3-Asp-Ala-B5-Asp-Glu-Ala-Ala-Phe-Asn-S8-hPhe-BztA-Gln-NH2]
130 nM	130 nM	1.97	44 µM (≈ 80.7 µg/mL)	–	–	CC(=O)N1CCC[C@]12CC=CCCCC1(CCCC=CCCCCCC[C@@](C)(C(=O)N[C@@H](Cc3ccccc3)C(=O)N[C@@H](Cc3csc4ccccc34)C(=O)N[C@@H](CCC(N)=O)C(N)=O)NC(=O)[C@H](CC(N)=O)NC(=O)[C@H](Cc3cccs3)NC(=O)[C@H](C)NC(=O)[C@H](C)NC(=O)[C@H](CCC(=O)O)NC(=O)[C@H](CC(=O)O)NC1=O)NC(=O)[C@H](C)NC(=O)[C@H](CC(=O)O)NC2=O (stereo partly drawn) [I-446, Ac-PL3-Asp-Ala-B5-Asp-Glu-Ala-Ala-2Thi-Asn-S8-Phe-BztA-Gln-NH2]
74 nM	74 nM	1.996	50 µM (≈ 91.7 µg/mL)	–	–	CC(=O)N1CCC[C@]12CC=CCCCC1(CCCC=CCCCCCC[C@@](C)(C(=O)N[C@@H](Cc3ccccc3)C(=O)N[C@@H](Cc3csc4ccccc34)C(=O)N[C@@H](CCC(N)=O)C(N)=O)NC(=O)[C@H](CC(N)=O)NC(=O)[C@H](Cc3cccs3)NC(=O)[C@H](C)NC(=O)[C@H](C)NC(=O)[C@H](CCC(=O)O)NC(=O)[C@H](CC(=O)O)NC1=O)NC(=O)[C@H](C)NC(=O)[C@H](CC(=O)O)NC2=O (stereo partly drawn) [I-447, Ac-PL3-Asp-Ala-B5-Asp-Glu-Ala-Ala-2Thi-Asn-S8-Phe-BztA-Gln-NH2]
92 nM	92 nM	1.976	50 µM (≈ 91.7 µg/mL)	–	–	CC(=O)N1CCC[C@]12CC=CCCCC1(CCCC=CCCCCCC[C@@](C)(C(=O)N[C@@H](Cc3ccccc3)C(=O)N[C@@H](Cc3csc4ccccc34)C(=O)N[C@@H](CCC(N)=O)C(N)=O)NC(=O)[C@H](CC(N)=O)NC(=O)[C@H](Cc3ccsc3)NC(=O)[C@H](C)NC(=O)[C@H](C)NC(=O)[C@H](CCC(=O)O)NC(=O)[C@H](CC(=O)O)NC1=O)NC(=O)[C@H](C)NC(=O)[C@H](CC(=O)O)NC2=O (stereo partly drawn) [I-448, Ac-PL3-Asp-Ala-B5-Asp-Glu-Ala-Ala-3Thi-Asn-S8-Phe-BztA-Gln-NH2]
53 nM	53 nM	1.998	30 µM (≈ 55 µg/mL)	–	–	CC(=O)N1CCC[C@]12CC=CCCCC1(CCCC=CCCCCCC[C@@](C)(C(=O)N[C@@H](Cc3ccccc3)C(=O)N[C@@H](Cc3csc4ccccc34)C(=O)N[C@@H](CCC(N)=O)C(N)=O)NC(=O)[C@H](CC(N)=O)NC(=O)[C@H](Cc3ccsc3)NC(=O)[C@H](C)NC(=O)[C@H](C)NC(=O)[C@H](CCC(=O)O)NC(=O)[C@H](CC(=O)O)NC1=O)NC(=O)[C@H](C)NC(=O)[C@H](CC(=O)O)NC2=O (stereo partly drawn) [I-449, Ac-PL3-Asp-Ala-B5-Asp-Glu-Ala-Ala-3Thi-Asn-S8-Phe-BztA-Gln-NH2]
